Data set [1] relates to L6. Description: Induction of glucose uptake in rat L6 cells incubated for 22 hrs in presence of glucose by microplate reader assay. It counts as functional, cell-based.
A further data set concerns Plasmodium falciparum. Description: Antiprotozoal activity against erythrocytic stage of Plasmodium falciparum 3D7 incubated for 72 hrs by lactate dehydrogenase assay. It counts as functional, organism-based. To be noted: 3D7, 72 h.
Data set [2] deals with L6. Description: Cytotoxicity against rat L6 cells assessed as decrease in cell viability at 10 to 40 uM incubated for 22 hrs by MTT assay. In kind it is cell-based. Conditions: l6, 22 h. Background: Tetrazolium assays rely on reduction of a dye to a coloured formazan, in cell work by metabolically active cells.

This passage reports Activity and IC50 results from ChEMBL document CHEMBL4414591, “Isolation and Total Synthesis of Mabuniamide, a Lipopeptide from an Okeania sp. Marine Cyanobacterium” (J Nat Prod, 2019).

Broadly, the IC50 is the concentration at which inhibition is half-maximal. The low end stands for higher potency, the high end for lower potency.

Turning to `CCCC(=O)N(C)[C@@H](C)C(=O)N1CCC[C@H]1C(=O)N(C)[C@@H](Cc1ccccc1)C(=O)N[C@@H](CC(C)C)C(=O)N(C)[C@@H](C(=O)N[C@H](C(=O)NCC(=O)N(C)[C@H](Cc1ccccc1)C(=O)N1CCC[C@H]1C(=O)OC)C(C)C)C(C)C` (stereo in doubt; form 2), the Activity result in the data set on L6 [1] is “Dose-dependent effect”.
Turning to `CCCC(=O)N(C)[C@@H](C)C(=O)N1CCC[C@H]1C(=O)N(C)[C@@H](Cc1ccccc1)C(=O)N[C@@H](CC(C)C)C(=O)N(C)[C@@H](C(=O)N[C@H](C(=O)NCC(=O)N(C)[C@H](Cc1ccccc1)C(=O)N1CCC[C@H]1C(=O)OC)C(C)C)C(C)C` (stereo in doubt; form 1) [listing 1 of 2 here], it took 1.4 µM to reach half-maximal inhibition with Plasmodium falciparum (IC50). In the data set on L6 [2], the Activity entry was “Non-Toxic”.
As for `CCCC(=O)N(C)[C@@H](C)C(=O)N1CCC[C@H]1C(=O)N(C)[C@H](Cc1ccccc1)C(=O)N[C@@H](CC(C)C)C(=O)N(C)[C@@H](C(=O)N[C@H](C(=O)NCC(=O)N(C)[C@@H](Cc1ccccc1)C(=O)N1CCC[C@H]1C(=O)OC)C(C)C)C(C)C`, in the data set on Plasmodium falciparum, 2.8 µM corresponded to half-maximal inhibition (IC50).
`CCCC(=O)N(C)[C@@H](C)C(=O)N1CCC[C@H]1C(=O)N(C)[C@@H](Cc1ccccc1)C(=O)N[C@@H](CC(C)C)C(=O)N(C)[C@@H](C(=O)N[C@H](C(=O)NCC(=O)N(C)[C@H](Cc1ccccc1)C(=O)N1CCC[C@H]1C(=O)OC)C(C)C)C(C)C` (stereo in doubt; form 1) [listing 2 of 2 here]: the Activity entry with L6 [1] was “Dose-dependent effect”.
